# Assays:
# Format in all cases: cell-based
# K562 = assay: MTT assay, K562 cells; details: Homo sapiens, 24 h, MTT, read-out: Viability rate
# Procedure: K562, Jurkat and Molt-4 cell lines were seeded as 4x10^5/ml, Reh and Nalm-6 cell lines were seeded 5x10^5/ml, Hek293T cell line was seed as 2x10^5/ml.
# MTT assay is a 3-day test. On the first day, cell count was performed in Bio Rad TC-20 device with the help of trypan blue, each cell line was prepared by diluting to the specified concentrations and seeded in a 96-well plate as 100μL to each well and incubated for 1 day.
# On the second day, stock solutions were subsequently diluted to various concentrations (0.3–200 μM) with related medium prior to experiments. Specified concentrations of the compounds were seeded in a 96-well plate as 100μL to each well and incubated for 24 h.
# After incubation (on the third day), to precipitate leukemia cells, the cell plate was centrifuged at 1500 rpm for 5 min. […] The 50 μl of supernatant was discarded from each well and 100 μl of DMSO was added to dissolve the formazan. Plates were shaken for 45 min to dissolve the dye. Then the optical density of each well was measured by using Thermo VarioSkan Flush Multimode Reader Quantum ST5-1100 at 570 nm wavelength.
# Subsequently, viability rate of the cells at each concentration, as percentage, was determined by following formula (1):
# Viability rate (%)=100-[(OD(control)-OD(sample))/OD(control)×100].OD=Optical Density
# The IC50 values were calculated by using GraphPad Prism. All the data presented as the mean of 6 replicates. […] Statistical analysis was performed using dose-response inhibition, log(inhibitor) vs response-variable slope, least squares (ordinary) fit.
# Nalm-6 = assay: MTT assay, Nalm-6 cells; details: Homo sapiens, 24 h, MTT, read-out: Viability rate
# Molt-4 = assay: MTT assay, Molt-4 cells; details: Homo sapiens, MOLT-4, 24 h, read-out: Viability rate
# Reh = assay: MTT assay, Reh cells; details: Homo sapiens, 24 h, read-out: Viability rate
# Jurkat = assay: MTT assay, Jurkat cells; details: Homo sapiens, 24 h, read-out: Viability rate
# [1] = MTT assay, Hek293T non-leukemic control cells; details: human, read-out: Viability rate
# [2] = test system: K562, Nalm-6, Molt-4, Reh, Jurkat, Hek293T cell lines; assay: MTT assay, overall judgement over all cell lines; details: overall judgement in words; for 6 and 10: on all cell lines, except Reh
# How it was run: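 MTT viability assay run across a range of compound concentrations in leukemic lines, BCR-ABL positive K562 and BCR-ABL negative Nalm-6, Molt-4, Reh, Jurkat, plus non-leukemic Hek293T. Viability rate calculated per concentration.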
smiles,measurement,setting,value
"Cc1ccnc(Nc2cc(NC(=O)c3ccc(CN4CCOCC4)cc3)ccc2C)n1 [Compound 8, N-(4-Methyl-3-((4-methylpyrimidin-2-yl)amino)phenyl)-4-(morhpolinomethyl)benzamide]",viability at 0.3 µM,"K562; K562, 0.3 μM",86.2 ± 0.09%
same,viability at 0.5 µM,"K562; K562, 0.5 μM",85.3 ± 0.03%
same,viability at 1 µM,"K562; K562, 1 μM",84.7 ± 0.05%
same,viability at 3 µM,"K562; K562, 3 μM",84.7 ± 0.06%
same,viability at 5 µM,"K562; K562, 5 μM",76.8 ± 0.11%
same,viability at 10 µM,"K562; K562, 10 μM",76.7 ± 0.05%
same,viability at 15 µM,"K562; K562, 15 μM",76.7 ± 0.08%
same,viability at 20 µM,"K562; K562, 20 μM",76.6 ± 0.04%
same,viability at 30 µM,"K562; K562, 30 μM",75.6 ± 0.09%
same,viability at 50 µM,"K562; K562, 50 μM",72.5 ± 0.07%
same,viability at 70 µM,"K562; K562, 70 μM",72.6 ± 0.08%
same,viability at 100 µM,"K562; K562, 100 μM",66.4 ± 0.02%
same,viability at 150 µM,"K562; K562, 150 μM",65.3 ± 0.06%
same,viability at 200 µM,"K562; K562, 200 μM",65.2 ± 0.06%
same,viability at 0.3 µM,"Nalm-6; Nalm-6, 0.3 μM",102.8 ± 0.04%
same,viability at 0.5 µM,"Nalm-6; Nalm-6, 0.5 μM",101.8 ± 0.04%
same,viability at 1 µM,"Nalm-6; Nalm-6, 1 μM",102.7 ± 0.02%
same,viability at 3 µM,"Nalm-6; Nalm-6, 3 μM",99.6 ± 0.04%
same,viability at 5 µM,"Nalm-6; Nalm-6, 5 μM",102.5 ± 0.02%
same,viability at 10 µM,"Nalm-6; Nalm-6, 10 μM",100.6 ± 0.03%
same,viability at 15 µM,"Nalm-6; Nalm-6, 15 μM",100 ± 0.03%
same,viability at 20 µM,"Nalm-6; Nalm-6, 20 μM",94.2 ± 0.07%
same,viability at 30 µM,"Nalm-6; Nalm-6, 30 μM",95.9 ± 0.07%
same,viability at 50 µM,"Nalm-6; Nalm-6, 50 μM",91.9 ± 0.06%
same,viability at 70 µM,"Nalm-6; Nalm-6, 70 μM",87.7 ± 0.02%
same,viability at 100 µM,"Nalm-6; Nalm-6, 100 μM",87.4 ± 0.02%
same,viability at 150 µM,"Nalm-6; Nalm-6, 150 μM",81.3 ± 0.02%
same,viability at 200 µM,"Nalm-6; Nalm-6, 200 μM",70.8 ± 0.01%
same,viability at 0.3 µM,"Molt-4; Molt-4, 0.3 μM",98.5 ± 0.09%
same,viability at 0.5 µM,"Molt-4; Molt-4, 0.5 μM",98.5 ± 0.11%
same,viability at 1 µM,"Molt-4; Molt-4, 1 μM",95.4 ± 0.11%
same,viability at 3 µM,"Molt-4; Molt-4, 3 μM",89.2 ± 0.07%
same,viability at 5 µM,"Molt-4; Molt-4, 5 μM",90.7 ± 0.07%
same,viability at 10 µM,"Molt-4; Molt-4, 10 μM",90.4 ± 0.07%
same,viability at 15 µM,"Molt-4; Molt-4, 15 μM",90.8 ± 0.05%
same,viability at 20 µM,"Molt-4; Molt-4, 20 μM",88.3 ± 0.04%
same,viability at 30 µM,"Molt-4; Molt-4, 30 μM",85.8 ± 0.04%
same,viability at 50 µM,"Molt-4; Molt-4, 50 μM",83.6 ± 0.02%
same,viability at 70 µM,"Molt-4; Molt-4, 70 μM",82.6 ± 0.09%
same,viability at 100 µM,"Molt-4; Molt-4, 100 μM",81.5 ± 0.09%
same,viability at 150 µM,"Molt-4; Molt-4, 150 μM",78.9 ± 0.05%
same,viability at 200 µM,"Molt-4; Molt-4, 200 μM",78.8 ± 0.07%
same,viability at 0.3 µM,Reh; 0.3 μM,100.8 ± 0.03%
same,viability at 0.5 µM,Reh; 0.5 μM,102.4 ± 0.02%
same,viability at 1 µM,Reh; 1 μM,102 ± 0.01%
same,viability at 3 µM,Reh; 3 μM,104.8 ± 0.02%
same,viability at 5 µM,Reh; 5 μM,103.5 ± 0.01%
same,viability at 10 µM,Reh; 10 μM,103.1 ± 0.01%
same,viability at 15 µM,Reh; 15 μM,100.3 ± 0.01%
same,viability at 20 µM,Reh; 20 μM,100.6 ± 0.02%
same,viability at 30 µM,Reh; 30 μM,102.4 ± 0.04%
same,viability at 50 µM,Reh; 50 μM,99.4 ± 0.02%
same,viability at 70 µM,Reh; 70 μM,94.2 ± 0.03%
same,viability at 100 µM,Reh; 100 μM,91.1 ± 0.01%
same,viability at 150 µM,Reh; 150 μM,91.1 ± 0.02%
same,viability at 200 µM,Reh; 200 μM,91.2 ± 0.04%
same,viability at 0.3 µM,Jurkat; 0.3 μM,81.7 ± 0.08%
same,viability at 0.5 µM,Jurkat; 0.5 μM,78.7 ± 0.03%
same,viability at 1 µM,Jurkat; 1 μM,75.8 ± 0.04%
same,viability at 3 µM,Jurkat; 3 μM,76.8 ± 0.04%
same,viability at 5 µM,Jurkat; 5 μM,78.8 ± 0.02%
same,viability at 10 µM,Jurkat; 10 μM,78.5 ± 0.05%
same,viability at 15 µM,Jurkat; 15 μM,77.6 ± 0.05%
same,viability at 20 µM,Jurkat; 20 μM,77.6 ± 0.04%
same,viability at 30 µM,Jurkat; 30 μM,66.1 ± 0.07%
same,viability at 50 µM,Jurkat; 50 μM,65.4 ± 0.03%
same,viability at 70 µM,Jurkat; 70 μM,65.3 ± 0.04%
same,viability at 100 µM,Jurkat; 100 μM,63 ± 0.02%
same,viability at 150 µM,Jurkat; 150 μM,62.4 ± 0.08%
same,viability at 200 µM,Jurkat; 200 μM,62.3 ± 0.05%
same,"viability at 24 h, 0.3 µM","[1]; Hek293T cells (non-leukemic control cell line), 0.3 μM",95.7 ± 0.03%
same,"viability at 24 h, 0.5 µM","[1]; Hek293T cells (non-leukemic control cell line), 0.5 μM",94.8 ± 0.07%
same,"viability at 24 h, 3 µM","[1]; Hek293T cells (non-leukemic control cell line), 3 μM",92.9 ± 0.04%
same,"viability at 24 h, 5 µM","[1]; Hek293T cells (non-leukemic control cell line), 5 μM",91.2 ± 0.09%
same,"viability at 24 h, 10 µM","[1]; Hek293T cells (non-leukemic control cell line), 10 μM",90.8 ± 0.05%
same,"viability at 24 h, 15 µM","[1]; Hek293T cells (non-leukemic control cell line), 15 μM",90.1 ± 0.07%
same,"viability at 24 h, 20 µM","[1]; Hek293T cells (non-leukemic control cell line), 20 μM",90 ± 0.04%
same,"viability at 24 h, 30 µM","[1]; Hek293T cells (non-leukemic control cell line), 30 μM",84.9 ± 0.04%
same,"viability at 24 h, 50 µM","[1]; Hek293T cells (non-leukemic control cell line), 50 μM",81.3 ± 0.02%
same,"viability at 24 h, 70 µM","[1]; Hek293T cells (non-leukemic control cell line), 70 μM",66.9 ± 0.02%
same,"viability at 24 h, 100 µM","[1]; Hek293T cells (non-leukemic control cell line), 100 μM",66.4 ± 0.03%
same,"viability at 24 h, 150 µM","[1]; Hek293T cells (non-leukemic control cell line), 150 μM",59.4 ± 0.01%
same,"viability at 24 h, 200 µM","[1]; Hek293T cells (non-leukemic control cell line), 200 μM",58.2 ± 0.01%
same,"viability at 24 h, 1 µM","[1]; Hek293T cells, 1 μM",94.3 ± 0.06%
same,anticancer activity according to MTT assay results,[2],relatively lower activity
